# Laboratory results as given in ChEMBL document CHEMBL1201862, “PubChem BioAssay data set” (2004).
#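 Method: 48-hour compound exposure of cells in 96-well plates, five concentrations, linear interpolation of endpoints. GI50 = concentration required for 50% inhibition of growth.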 Active and inactive are the calls of the source. No stated cut-off is given here; in the data, active = GI50 up to about 1.1 µM and inactive = higher.
# Legend:
# Assay in all cases: NCI-60 cell line screen, 48 h
# CAKI-1 = system: CAKI-1
# SW-620 = system: SW-620
# OVCAR-3 = system: OVCAR-3
# SK-OV-3 = system: SK-OV-3
# TK-10 = system: TK-10
# KM12 = system: KM12
# MOLT-4 = system: MOLT-4
# SNB-75 = system: SNB-75
# UACC-257 = system: UACC-257
# HOP-92 = system: HOP-92
# NCI-H226 = system: NCI-H226
# HCT-15 = system: HCT-15
# OVCAR-8 = system: OVCAR-8
# IGROV-1 = system: IGROV-1
# MDA-MB-435 = system: MDA-MB-435
# M14 = system: M14
# U-251 = system: U-251
# NCI/ADR-RES = system: NCI/ADR-RES
# A498 = system: A498
# LOX IMVI = system: LOX IMVI
Compound,GI50 (CAKI-1),GI50 (SW-620),GI50 (OVCAR-3),GI50 (SK-OV-3),GI50 (TK-10),GI50 (KM12),GI50 (MOLT-4),GI50 (SNB-75),GI50 (UACC-257),GI50 (HOP-92),GI50 (NCI-H226),GI50 (HCT-15) [µM],GI50 (OVCAR-8),GI50 (IGROV-1),GI50 (MDA-MB-435),GI50 (M14),GI50 (U-251),GI50 (NCI/ADR-RES),GI50 (A498),GI50 (LOX IMVI)
COc1cc(O)ccc1C(=S)SC,56.8 µM (inactive),> 100 µM (inactive),62.4 µM (inactive),> 100 µM (inactive),60.4 µM (inactive),69.7 µM (inactive),20.8 µM (inactive),> 100 µM (inactive),51.5 µM (inactive),34.2 µM (inactive),16 µM (inactive),40.8,58.7 µM (inactive),42.6 µM (inactive),68.5 µM (inactive),> 100 µM (inactive),54.2 µM (inactive),38.9 µM (inactive),–,–
CN(C)CCNC(=O)c1cccc(NC(=O)c2ccccc2)c1[N+](=O)[O-],> 100 µM (inactive),> 100 µM (inactive),27.7 µM (inactive),> 100 µM (inactive),> 100 µM (inactive),> 100 µM (inactive),> 100 µM (inactive),36 µM (inactive),> 100 µM (inactive),–,> 100 µM (inactive),> 100,> 100 µM (inactive),> 100 µM (inactive),> 100 µM (inactive),> 100 µM (inactive),> 100 µM (inactive),> 100 µM (inactive),> 100 µM (inactive),–
N#Cc1nc(COCc2ccccc2)oc1N,> 100 µM (inactive),> 100 µM (inactive),> 100 µM (inactive),> 100 µM (inactive),> 100 µM (inactive),58.6 µM (inactive),> 100 µM (inactive),> 100 µM (inactive),> 100 µM (inactive),> 100 µM (inactive),> 100 µM (inactive),51.1,> 100 µM (inactive),> 100 µM (inactive),> 100 µM (inactive),> 100 µM (inactive),> 100 µM (inactive),> 100 µM (inactive),–,> 100 µM (inactive)
CN(C)CCN(/C(=N/c1ccccc1)N1CCCC1)c1ccccc1,> 100 µM (inactive),31.7 µM (inactive),37.3 µM (inactive),> 100 µM (inactive),> 100 µM (inactive),20 µM (inactive),4.92 µM (inactive),49 µM (inactive),55.1 µM (inactive),96.8 µM (inactive),75.9 µM (inactive),26.8,68.7 µM (inactive),13.7 µM (inactive),15.5 µM (inactive),43.7 µM (inactive),68.5 µM (inactive),42.3 µM (inactive),–,4.06 µM (inactive)
Oc1c(Cl)c(Cl)c(O)c(-c2cnc(-c3ncc(-c4c(O)c(Cl)c(Cl)c(O)c4Cl)s3)s2)c1Cl,20.9 µM (inactive),21.4 µM (inactive),21.4 µM (inactive),41.2 µM (inactive),26.7 µM (inactive),29.2 µM (inactive),> 100 µM (inactive),28.1 µM (inactive),29 µM (inactive),25 µM (inactive),3.96 µM (inactive),13.6,16.7 µM (inactive),16.1 µM (inactive),21.9 µM (inactive),19.5 µM (inactive),22.6 µM (inactive),25.3 µM (inactive),–,–
CC(=O)OC[C@@H](OC(C)=O)[C@@H](OC(C)=O)[C@H]1OC[C@@H]2C[C@H]([C@H]1OC(C)=O)N(Cc1ccccc1)O2,> 100 µM (inactive),> 100 µM (inactive),> 100 µM (inactive),93.8 µM (inactive),> 100 µM (inactive),> 100 µM (inactive),> 100 µM (inactive),> 100 µM (inactive),> 100 µM (inactive),> 100 µM (inactive),> 100 µM (inactive),–,–,> 100 µM (inactive),> 100 µM (inactive),> 100 µM (inactive),> 100 µM (inactive),> 100 µM (inactive),–,> 100 µM (inactive)
C/C(=N\NC(=S)NNC(=S)N(C)c1ccccc1)c1ccccn1,0.977 µM (active),0.489 µM (active),0.544 µM (active),1.48 µM (inactive),2.86 µM (inactive),4.21 µM (inactive),0.43 µM (active),6.76 µM (inactive),1.31 µM (inactive),2.52 µM (inactive),1.41 µM (inactive),1.16,0.538 µM (active),0.764 µM (active),3.52 µM (inactive),0.454 µM (active),1.11 µM (active),2.66 µM (inactive),–,–
CC(C)C1CNC(=O)C2(/C=N/C(C(C)C)CNC(=O)C3(/C=N/1)CCCO3)CCCO2 (stereo unspecified),> 10 µM (inactive),> 10 µM (inactive),> 10 µM (inactive),> 10 µM (inactive),> 10 µM (inactive),> 10 µM (inactive),> 10 µM (inactive),> 10 µM (inactive),> 10 µM (inactive),> 10 µM (inactive),–,> 10,> 10 µM (inactive),> 10 µM (inactive),> 10 µM (inactive),> 10 µM (inactive),> 10 µM (inactive),> 10 µM (inactive),> 10 µM (inactive),–
Nc1c(Cl)c([N+](=O)[O-])cc2c1OCCCCO2,56.4 µM (inactive),> 100 µM (inactive),> 100 µM (inactive),18.3 µM (inactive),> 100 µM (inactive),> 100 µM (inactive),> 100 µM (inactive),23.8 µM (inactive),> 100 µM (inactive),38.4 µM (inactive),72.3 µM (inactive),> 100,> 100 µM (inactive),40.5 µM (inactive),> 100 µM (inactive),> 100 µM (inactive),3.9 µM (inactive),89.5 µM (inactive),–,61.4 µM (inactive)
CCCCN1C(=O)CC2[C@@H]3CCc4cc(OC)ccc4C3CC[C@]2(C)C1=O (stereo partly specified),> 10 µM (inactive),> 10 µM (inactive),> 10 µM (inactive),> 10 µM (inactive),> 10 µM (inactive),> 10 µM (inactive),> 10 µM (inactive),3.1 µM (inactive),> 10 µM (inactive),–,> 10 µM (inactive),> 10,> 10 µM (inactive),> 10 µM (inactive),> 10 µM (inactive),> 10 µM (inactive),> 10 µM (inactive),> 10 µM (inactive),> 10 µM (inactive),> 10 µM (inactive)
COC(=O)C1(Cc2ccc3c(c2)CCC3)Cc2ccccc2C1,36.2 µM (inactive),21.9 µM (inactive),40.7 µM (inactive),29.7 µM (inactive),82.8 µM (inactive),37.2 µM (inactive),6.73 µM (inactive),55.7 µM (inactive),26.4 µM (inactive),–,29.9 µM (inactive),25.8,50.6 µM (inactive),48.3 µM (inactive),25.2 µM (inactive),39.7 µM (inactive),42.3 µM (inactive),44.1 µM (inactive),32.8 µM (inactive),14.7 µM (inactive)
Nn1c(Nc2ccc(S(N)(=O)=O)cc2)nnc(/C=C/c2c(O)ccc3ccccc23)c1=O,22.9 µM (inactive),16.4 µM (inactive),13 µM (inactive),24.2 µM (inactive),–,19.6 µM (inactive),0.234 µM (active),–,27.5 µM (inactive),–,–,12.8,3.08 µM (inactive),0.128 µM (active),20.4 µM (inactive),26.4 µM (inactive),39.9 µM (inactive),16.3 µM (inactive),26.7 µM (inactive),12.9 µM (inactive)
CN1N(c2ccccc2)C(=O)C2=NC=C(C(=O)c3ccccc3)C(=N)C21C (stereo unspecified),> 100 µM (inactive),> 100 µM (inactive),> 100 µM (inactive),> 100 µM (inactive),> 100 µM (inactive),–,> 100 µM (inactive),–,> 100 µM (inactive),> 100 µM (inactive),> 100 µM (inactive),> 100,–,> 100 µM (inactive),> 100 µM (inactive),> 100 µM (inactive),> 100 µM (inactive),–,> 100 µM (inactive),> 100 µM (inactive)
c1ccc2c(c1)CCN2CCc1c[nH]c2ccccc12,> 10 µM (inactive),> 10 µM (inactive),> 10 µM (inactive),> 10 µM (inactive),> 10 µM (inactive),> 10 µM (inactive),> 10 µM (inactive),> 10 µM (inactive),> 10 µM (inactive),> 10 µM (inactive),> 10 µM (inactive),> 10,> 10 µM (inactive),> 10 µM (inactive),> 10 µM (inactive),> 10 µM (inactive),> 10 µM (inactive),> 10 µM (inactive),–,> 10 µM (inactive)
COc1cc2c(cc1OC)-c1cc3ccc(OC)c(OC)c3c[n+]1CC2 [PALMATINE CHLORIDE],> 100 µM (inactive),> 100 µM (inactive),39.9 µM (inactive),> 100 µM (inactive),> 100 µM (inactive),> 100 µM (inactive),> 100 µM (inactive),> 100 µM (inactive),48.5 µM (inactive),> 100 µM (inactive),> 100 µM (inactive),> 100,> 100 µM (inactive),> 100 µM (inactive),> 100 µM (inactive),> 100 µM (inactive),27.9 µM (inactive),> 100 µM (inactive),–,–
